The values below come from patent publication US12497370B2, “Isoxazoline derivatives” (Elanco Tiergesundheit AG, priority 2019, dated 2025).

SMILES strings stand for the structures. Like-named read-outs stand apart in the source and are kept apart here. Where only a bound is given, the exact number is not on record here.

Series [1] relates to fleas (Ctenocephalides felis). As to the kind of experiment: In vitro evaluation of ingestion activity against fleas. The conditions noted are these: flea ingestion test, compound in organic bovine blood (0.5% DMSO), adult fleas, percent mortality between 2 h and 48 h post infestation, read-out: EC50 (the source's name). The procedure:
In Vitro Evaluation of Ingestion Activity Against Fleas (Ctenocephalides felis)
For flea ingestion tests, serial dilutions of the compound stock were performed using DMSO to achieve the desired range for EC50 and EC90 determination. An aliquot of each compound dilution was added to organic bovine blood with a final DMSO concentration of 0.5% and placed in an artificial feeding container. Fipronil is included to serve as a positive control. Ten newly emerged unfed adult fleas, 0-7 days old Ctenocephalides felis, from a laboratory colony, were aspirated into each vial or cage. The cages for flea ingestion assays were held in a temperature-controlled artificial feeding apparatus to allow continual access to organic bovine blood containing the desired concentration of compound. Fresh aliquots of compound-spiked bovine blood were provided daily for the duration of the study. Fleas were evaluated for percent mortality at various time points between 2 h and 48 h post infestation. Fleas showing normal movement and/or jumping ability were considered viable and those showing no movement after tapping the vials were scored as dead.

Series [2] can be described thus: PK determination following administration to beagle dogs. In kind it is in vivo. The conditions noted are these: dog. How it is done:
PK Determination Following Administration to Beagle Dogs
Behavior of single oral or intravenous dose of the desired compound was assessed in beagle dogs. The animals (n=6) received the compound by oral gavage (3 or 10 mg/kg) or intravenous dose (1 or 2 mg/kg). Blood samples were collected predose and at 0.25, 0.5, 1, 2, 4, 8, 24, 48, 72, 96, 168, 336, 504, 672, 1008, 1344, 1680, 2016, 2352, 2688, 2856 and 3024 h postdose. A portion of each whole blood sample was processed to plasma. Test article concentrations in plasma and whole blood were determined using LC-MS/MS.

The mark [3] stands for this setting: in vivo, beagle dogs, single oral gavage (3 or 10 mg/kg) or intravenous dose (1 or 2 mg/kg), LC-MS/MS, read-out: Half-life (converted).
The mark [4] stands for this setting: in vivo, beagle dogs, single oral gavage (3 or 10 mg/kg) or intravenous dose (1 or 2 mg/kg), LC-MS/MS, read-out: Plasma clearance (converted).

On to `Cc1cc(C2=NOC(c3cc(C(F)(F)F)cc(Cl)c3F)(C(F)(F)F)C2)ccc1C(=O)N[C@H]1CC[C@@H](C#N)CC1` (single isomer, unassigned) [Example 3.91, N-(cis-4-cyanocyclohexyl)-2-methyl-4-[(5R or S)-5-[3-chloro-2-fluoro-5-(trifluoromethyl)phenyl]-5-(trifluoromethyl)-4H-isoxazol-3-yl]benzamide], for which the LC50 in series [1] was below 1 µg/mL.

In the case of `Cc1cc(C2=NOC(c3cc(C(F)(F)F)cc(Cl)c3F)(C(F)(F)F)C2)ccc1C(=O)N[C@H]1CC[C@H](C#N)CC1` (single isomer, unassigned) [Example 3.92, N-(trans-4-cyanocyclohexyl)-2-methyl-4-[(5R or S)-5-[3-chloro-2-fluoro-5-(trifluoromethyl)phenyl]-5-(trifluoromethyl)-4H-isoxazol-3-yl]benzamide], the LC50 in series [1] is below 3 µg/mL.

As for `Cc1cc(C2=NOC(c3cc(C(F)(F)F)cc(Cl)c3F)(C(F)(F)F)C2)ccc1C(=O)NC1(C)CSC1` (single isomer, unassigned) [Example 3.93, 2-methyl-N-(3-methylthietan-3-yl)-4-[(5R or S)-5-[3-chloro-2-fluoro-5-(trifluoromethyl)phenyl]-5-(trifluoromethyl)-4H-isoxazol-3-yl]benzamide], the LC50 in series [1] is below 1 µg/mL.

`CS(=O)(=O)CC(=O)N1CC2(C1)OCc1cc(C3=NO[C@](c4cc(C(F)(F)F)cc(C(F)F)c4F)(C(F)(F)F)C3)ccc12` [1.1 or 1.2]: in series [2] (beagle, in vivo), the clearance is 2.36 mL/h/kg and the half-life is 36 days. In series [1], the LC50 is below 3 µg/mL.

Turning to `O=C(CNC(=O)c1ccc(C2=NOC(c3cc(C(F)(F)F)cc(Cl)c3F)(C(F)(F)F)C2)c2ccccc12)NCC(F)(F)F` (stereo not drawn) [2.1 or 2.2], in series [2] (beagle, in vivo), the clearance was 2.31 mL/h/kg and the half-life is 45 days. Moreover, the LC50 in series [1] was below 1 µg/mL.

Regarding `Cc1cc(C2=NOC(c3cc(C(F)(F)F)cc(Cl)c3F)(C(F)(F)F)C2)ccc1C(=O)NCC(=O)NCC(F)(F)F` (stereo not drawn) [3.1 or 3.2], in series [2] (beagle, in vivo), the clearance was 2.55 mL/h/kg and the half-life is 50 days. For the same compound, the LC50 in series [1] was below 1 µg/mL.

As for `Cc1cc(C2=NOC(c3cc(C(F)(F)F)cc(Cl)c3F)(C(F)(F)F)C2)sc1C(=O)NCC(=O)NCC(F)(F)F` (stereo not drawn) [4.1 or 4.2], in series [2] (beagle, in vivo), the clearance was 2.36 mL/h/kg and the half-life was 44 days.

Take `O=C(CNC(=O)c1ccc(C2=NOC(c3cc(Cl)cc(C(F)(F)F)c3)(C(F)(F)F)C2)c2ccccc12)NCC(F)(F)F` (stereo not drawn) [afoxolaner, reference compound]: in series [2] (setting [3]), the half-life is 15.5 days. For the same compound, the clearance in series [2] (setting [4]) is 4.96 mL/h/kg.

For `Cc1cc(C2=NOC(c3cc(Cl)cc(Cl)c3)(C(F)(F)F)C2)ccc1C(=O)NCC(=O)NCC(F)(F)F` (stereo not drawn) [fluralaner, reference compound], in series [2] (setting [3]), the half-life is 12 to 15 days.

Turning to `Cc1cc(C2=NO[C@@](c3cc(Cl)c(Cl)c(Cl)c3)(C(F)(F)F)C2)sc1C(=O)NCC(=O)NCC(F)(F)F` [lotilaner, reference compound], in series [2] (setting [3]), the half-life was 25 days. Further, the clearance in series [2] (plasma, beagle dogs, single oral gavage (3 or 10 mg/kg) or intravenous dose (1 or 2 mg/kg), LC-MS/MS, read-out: Plasma clearance (converted)) is 7.5 mL/h/kg.

On to `CS(=O)(=O)CC(=O)N1CC2(C1)OCc1cc(C3=NO[C@@](c4cc(Cl)c(F)c(Cl)c4)(C(F)(F)F)C3)ccc12` [sarolaner, reference compound], for which, in series [2] (setting [3]), the half-life was 12 days. The clearance in series [2] (setting [4]) is 7.21 mL/h/kg.
